Experimental data as given in patent publication US12383534B2, “Methods for treating cancer” (REGENTS OF THE UNIVERSITY OF MINNESOTA, priority 2021, dated 2025).

Columns and labels:
[1] = system: NCC-CDS-X1 cells (CIC-DUX4 sarcoma cell line); experiment: Cell viability (ATP) assay in NCC-CDS-X1 cells; assay type: cell-based, human
Method: Basal media were purchased from HyClone, fetal bovine serum (FBS) was from PeakSerum (Ps-FB3, lot 293Q16), and Glutamax (Glu) and Penicillin/Streptomycin (P/S) were from GIBCO. NCC-CDS-X1 (CIC-DUX4 sarcoma cell line, a generous gift from Tadashi Kondo) cell line was cultured in RPMI with 10% FBS, Glu and P/S, Kitra-SRS (CIC-DUX4 sarcoma cell line, a generous gift from Hidetatsu Otani), 3T3, 293T and C2C12 cell lines were cultured in DMEM/10% FBS/Glu/P/S. The immortalized human myoblast LHCN-M2 cell line was cultured in proliferation medium: F10 supplemented with 20% FBS, 2-mercaptoethanol 1× (GIBCO), 10^−9 M dexamethasone (Sigma), 10 ng/mL bFGF (Peprotech), and Glu/P/S. All cells were cultured at 37° C. in a 5% CO2 atmosphere.
(§1) Cell lines were plated in a 96 well dish (1×10^5 cells/well), and the following day were treated with iP300w or its stereoisomers. ATP assays were performed using CellTiter-Glo® Luminescent Cell Viability Assay (Promega) according to the manufacturer's instructions. Luminescence was analyzed on POLARstar Optima Microplate Reader (BMG Labtech, Offenburg, Germany).
The activity of the various iP300w stereoisomers against NCC-CDS-X1 cells was evaluated. Cultures were treated with serial dilutions, ranging from 0.003 μM to 3.0 μM, for up to 96 hours. In cells treated with iP300w, a significant decrease in cell viability was evident at the lowest concentration (0.003 μM) at 48 and 96 hours (FIG. 3A). The effect was dose- and time-dependent. […] (FIG. 2B and FIG. 9).

[2] = system: NCC-CDS-X1 and Kitra-SRS cell cultures; experiment: Morphology of monolayer CDS cell cultures; assay type: cell-based, human; details: both CDS cell lines
Method: To evaluate the consequences of iP300w treatment of CDS cells, its effects on both monolayer cultures as well as 3D spheres was determined in both CDS cell lines. Inhibition of proliferation was morphologically apparent as early as 24 hours after iP300w treatment and progressed with time (FIG. 2A). Using the cell viability assay, it was determined that 0.003 μM was the lowest effective concentration on day 2 in both lines (FIG. 2B).

[3] = system: Ewing sarcoma cell lines (AF573, TC71, A673); experiment: Cell viability (ATP) assay in Ewing sarcoma cell lines; assay type: cell-based; details: 0.003 and 0.03 μM, 48 hours
Method: as §1
To determine whether iP300w was particularly active against CDS cells, vis-à-vis other related cancer cell lines, viability of 3 different Ewing sarcoma (ES) cell lines and several different immortalized cell lines treated with iP300w were compared. […] Furthermore, gene expression analyses confirmed the specificity of iP300w to CDS.

[4] = Cell viability (ATP) assay in colorectal cancer cells; assay type: cell-based; details: cancer and colorectal cell lines expected to have a general p300/CBP dependence
Method: as §1
(§2) Pancreatic and colorectal cancer cell lines were treated with iP300w to further distinguish its specificity to CDS from general cytotoxicity. p300/CBP have been correlated with the invasive and migratory properties of pancreatic and colorectal cancers (Iyer, N. G. et al., Proceedings of the National Academy of Sciences of the United States of America 101, 7386-7391 (2004); and Paladino, D. et al, Oncotarget 7, 7253-7267 (2016)). […] This further supports the specific efficacy of iP300w against cancers bearing p300-dependent oncogenic fusion transcription factors (such as CIC-DUX4), vis-à-vis cancers that may show some degree of growth inhibition by iP300w due simply to p300-dependent proliferative pathways.

[5] = system: HTC116, MKN28, KATO3 colorectal cancer cells; experiment: as above; assay type: cell-based; details: serial dilutions, 48 hours
Method: as §1, §2

[6] = system: global H3K18 and H3K27 acetylation; experiment: Western blot for H3 acetylation markers in Kitra-SRS cells; assay type: cell-based, human; details: 18 hours
Method: For western blot analyses, cells were lysed with RIPA buffer supplemented with protease inhibitor cocktail (Complete, Roche), and proteins were separated on 10% SDS-PAGE gels, then transferred to PVDF membranes. Antibodies were diluted in 5% skim milk in TBST and incubated overnight at 4° C. or 1 hour at RT. An appropriate secondary HRP conjugated antibody was incubated for 1 hour at RT. Membranes were then washed with TBST, and signal was visualized using Pierce ECL western blotting substrate (Thermo Scientific). For immunofluorescence, cells cultured in 96 well plates were fixed in 4% PFA for 10 min., washed twice with PBS, permeabilized with 0.3% Triton X for 30 min, and blocked with 3% BSA for 1 hour at R/T. Primary antibodies were diluted in 3% BSA and incubated o/n at 4° C. An appropriate conjugated secondary antibody was applied for 60 min at RT. Nuclei were visualized using DAPI (1:5000, Sigma). […]

p300 and CBP = details: in vitro and in vivo; cited from earlier work
DUX4 = details: cited from earlier work

CNC(=O)Cn1cc(-c2ccc3c(c2)[C@H](F)C[C@]32NC(=O)N(CC(=O)N(Cc3ccc(F)cc3)[C@@H](C)C(F)(F)F)C2=O)cn1 (single isomer, unassigned) [iP300w]
effective concentration on CDS cells ([1]; CDS cells, studies herein): 0.003 µM
lowest concentration with significant decrease in cell viability ([1]; NCC-CDS-X1, 48 and 96 hours, serial dilutions 0.003 to 3.0 μM): 0.003 µM
lowest effective concentration in cell viability assay ([1]; NCC-CDS-X1, day 2): 0.003 µM
activity relative to A-485 in the cell-based assays ([1]; cell-based assays): about two orders of magnitude more active than A-485
time at which inhibition of proliferation is morphologically apparent [2]: 24 hours
effect on cell viability [3]: only effective for CIC-DUX4 driven sarcomas and not for the other cell lines
concentration at which growth inhibition is first observed [4]: ≥ 0.3 µM
effect on cell viability [5]: no significant effect on cell viability
effect on global H3K18 and H3K27 acetylation [6]: reduces global H3K18 and H3K27 acetylation
inhibition of acetylation by p300 and CBP (p300 and CBP): inhibit acetylation by p300 and CBP both in vitro and in vivo
effect on cell death caused by full length DUX4 (DUX4): cell death was prevented
effect on gene expression changes caused by DUX4 (DUX4): ability to reverse gene expression changes caused by DUX4
